26 compounds from patent publication US7932271B2, “Heterocyclic methyl sulfone derivative” (Daiichi Pharmaceutical Co., Ltd., priority 2003, dated 2011) can be followed below.

As a reminder, the melting point is the temperature, or range, at which the solid turns liquid.

Series [1] has as its system β amyloid protein (Aβ) secreted by E35 cells (human glioma H4 cells transfected with APP751 gene). Briefly: Inhibition of production or secretion of β-amyloid protein (Aβ) in E35 cells, sandwich ELISA of the supernatant. In kind it is cell-based. Particulars: 24 hours with test compound, compared to DMSO control cells, read-out: Activity (IC50, concentration at which 50% inhibition of Aβ production was observed). How it is done:
The inhibitory activity against formation of β amyloid protein of the compounds obtained in Examples was tested in the method described bellow.
E35 cells were established by transfecting APP751 gene which is a wild type human β-amyloid protein precursor into human glioma cells (H4 cells).
E35 cells were seeded in 96-well plates and cultured in an incubator of 37° C. by using a Dulbecco's Modified Eagle's Medium containing 10% inactivated fetal bovine serum (10% FBS-DMEM). Twenty-four hours after seeding, a test compound dissolved in DMSO so as to give its concentration to be 2000 times as much as that of the final concentration was added to the medium in an amount of 1/2000 capacity of the culture medium. The cells were cultured for additional twenty-four hours, and then the supernatant was collected. The amount of β amyloid protein (Aβ) secreted in the supernatant was measured by the sandwich enzyme-linked immunosorbent assay (ELISA). Described specifically, a monoclonal antibody 25-1, which recognized Aβ25-35, was immobilized onto a 96-well ELISA plate, followed by the incubation at 4° C. for 16 to 20 hours. After washing with a phosphate buffer (pH 7.4) (PBS), a biotinylated monoclonal antibody MA32-40, which recognized Aβ1-8, was added, and the plate was kept at 4° C. for 2 hours. After the supernatant was removed and the well was washed sufficiently with PBS, alkaline phosphatase-conjugated streptavidin was added to the plate. Absorbance was measured while adding BlouPhos (manufactured by KPL) as a substrate. An amount of Aβ contained in the supernatant was calculated using a calibration curve separately created using Aβ of a known concentration. IC50 of the test compound was presented as the concentration at which 50% inhibition of Aβ production was observed compared to the amount of Aβ of the control cells to which only DMSO was added.
When there is at least 10-times difference between the IC50 and the concentration at which cytotoxicity appears, then the compound is judged as a compound having an inhibitory activity against production or secretion of β amyloid protein.

As for `O=S(=O)(CCN1CCCCC1)Nc1cc(C(c2cc(F)ccc2F)S(=O)(=O)c2ccc(Cl)cc2)c(Cl)cn1` (stereo not shown) [Example 278, N-[5-Chloro-4-[(4-chlorophenylsulfonyl)(2,5-difluorophenyl)methyl]pyridin-2-yl]-2-piperidin-1-ylethanesulfonamide], the melting point is 200 to 203 °C. In addition, in series [1], the IC50 was below 5 nM.
The like results for `Cc1cnc(N)cc1C(c1cc(F)ccc1F)S(=O)(=O)c1ccc(Cl)cc1` (stereo not shown) [Example 211, [4-[(4-Chlorophenylsulfonyl)(2,5-difluorophenyl)methyl]-5-methylpyridin-2-yl]amine] were, in that order, 188 to 189 °C and below 5 nM.
The like results for `CS(=O)(=O)Nc1cc(C(c2cc(F)ccc2F)S(=O)(=O)c2ccc(F)c(F)c2)c(Cl)cn1` (stereo not shown) [Example 249, N-[5-Chloro-4-[(2,5-difluorophenyl)(3,4-difluorophenylsulfonyl)methyl]pyridin-2-yl]methanesulfonamide] were, in that order, 118 to 120 °C and below 5 nM.
The like results for `Nc1cc(C(c2cc(F)ccc2F)S(=O)(=O)c2ccc(Cl)cc2)c(F)cn1` (stereo not shown) [Example 203, [4-[(4-Chlorophenylsulfonyl)(2,5-difluorophenyl)methyl]-5-fluoropyridin-2-yl]amine] were, in that order, 181 to 183 °C and 5 to 50 nM.
Turning to `CS(=O)(=O)Nc1cc(C(c2cc(F)ccc2F)S(=O)(=O)c2ccc(Cl)cc2)c(Cl)cn1` (stereo not shown) [Example 197, N-[5-Chloro-4-[(4-chlorophenylsulfonyl)(2,5-difluorophenyl)methyl]pyridin-2-yl]methanesulfonamide], the melting point lay in the range of 220 to 222 °C. The IC50 in series [1] is below 5 nM.
The like results for `O=C(O)CCc1cc(C(c2cc(F)ccc2F)S(=O)(=O)c2ccc(Cl)cc2)c(Cl)cn1` (stereo not shown) [Example 261, 3-[5-Chloro-4-[(4-chlorophenylsulfonyl)(2,5-difluorophenyl)methyl]pyridin-2-yl]propionic acid] were, in that order, 194 to 196 °C and 5 to 50 nM.
The like results for `O=S(=O)(c1ccc(Cl)cc1)C(c1cc(F)ccc1F)c1cc(NCCO)ncc1Cl` (stereo not shown) [Example 168, 2-[[5-Chloro-4-[(4-chlorophenylsulfonyl)-(2,5-difluorophenyl)methyl]pyridin-2-yl]amino]ethanol] were, in that order, 168 to 169 °C and below 5 nM.
The like results for `Nc1cc(C(c2cc(F)ccc2F)S(=O)(=O)c2ccc(Cl)c(F)c2)c(Cl)cn1` (stereo not shown) [Example 251, [5-Chloro-4-[(4-chloro-3-fluorophenylsulfonyl)(2,5-difluorophenyl)methyl]pyridin-2-yl]amine] were, in that order, 159 to 160 °C and below 5 nM.
For `Nc1cc(C(c2cc(F)ccc2F)S(=O)(=O)c2ccc(Cl)cc2)c(Cl)cn1` (stereo not shown) [Example 196, [5-Chloro-4-[(4-chlorophenylsulfonyl)(2,5-difluorophenyl)methyl]pyridin-2-yl]amine], the melting point fell in the range of 147 to 150 °C. Further, in series [1], the IC50 is below 5 nM.
The like results for `O=S(=O)(c1ccc(Cl)cc1)C(c1ccc(CO)cn1)c1cc(F)ccc1F` (stereo not shown) [Example 43, 2-[(4-Chlorophenylsulfonyl)-(2,5-difluorophenyl)methyl]-5-(hydroxymethyl)pyridine] were, in that order, 151 to 152 °C and 50 to 500 nM.
The like results for `O=C(O)CCc1ccc(C(c2cc(F)ccc2F)S(=O)(=O)c2ccc(Cl)cc2)nc1` (stereo not shown) [Example 46, 3-[6-[(4-Chlorophenylsulfonyl)-(2,5-difluorophenyl)methyl]pyridin-3-yl]propionic acid] were, in that order, 158 to 160 °C and 50 to 500 nM.
The like results for `CS(=O)(=O)Nc1cc(C(c2cc(F)ccc2F)S(=O)(=O)c2ccc(F)cc2)c(Cl)cn1` (stereo not shown) [Example 216, N-[5-Chloro-4-[(2,5-difluorophenyl)-(4-fluorophenylsulfonyl)methyl]pyridin-2-yl]methanesulfonamide] were, in that order, 178 to 179 °C and below 5 nM.
In turn, `O=S(=O)(CCN1CCOCC1)Nc1cc(C(c2cc(F)ccc2F)S(=O)(=O)c2ccc(Cl)cc2)c(Cl)cn1` (stereo not shown) [Example 280, N-[5-Chloro-4-[(4-chlorophenylsulfonyl)(2,5-difluorophenyl)methyl]pyridin-2-yl]-2-morpholin-4-ylethanesulfonamide] gave a melting point of 219 to 221 °C. For the same compound, the IC50 in series [1] was below 5 nM.
The like results for `N#Cc1ccc(S(=O)(=O)C(c2cc(F)ccc2F)c2cc(N)ncc2Cl)cc1` (stereo not shown) [Example 246, 4-[(2-Amino-5-chloropyridin-4-yl)(2,5-difluorophenyl)methylsulfonyl]benzonitrile] were, in that order, 233 to 235 °C and 5 to 50 nM.
Compound `CN1CCN(S(=O)(=O)Nc2cc(C(c3cc(F)ccc3F)S(=O)(=O)c3ccc(Cl)cc3)c(Cl)cn2)CC1` (stereo not shown) [Example 271] had a melting point of 215 to 218 °C. In addition, the IC50 in series [1] was below 5 nM.
The like results for `O=S(=O)(c1ccc(Cl)cc1)C(c1cc(F)ccc1F)c1cc(NS(=O)(=O)N2CCCCC2)ncc1Cl` (stereo not shown) [Example 270, N-[5-Chloro-4-[(4-chlorophenylsulfonyl)(2,5-difluorophenyl)methyl]pyridin-2-yl]piperidine-1-sulfonamide] were, in that order, 192 to 194 °C and 5 to 50 nM.
The like results for `O=S(=O)(c1ccc(Cl)cc1)C(c1cc(F)ccc1F)c1cc(N2CCC(O)CC2)ncc1Cl` (stereo not shown) [Example 116, 5-Chloro-4-[(4-chlorophenylsulfonyl)-(2,5-difluorophenyl)methyl]-2-(4′-hydroxypiperidin-1′-yl)pyridine] were, in that order, 146 to 148 °C and 5 to 50 nM.
The like results for `O=S(=O)(c1ccc(Cl)cc1)C(c1cc(F)ccc1F)c1cc(N2CCCS2(=O)=O)ncc1Cl` (stereo not shown) [Example 274, 5-Chloro-4-[(4-chlorophenylsulfonyl)(2,5-difluorophenyl)methyl]-2-(1,1-dioxo-1λ^6-isothiazolidin-2-yl)pyridine] were, in that order, 219 to 221 °C and 5 to 50 nM.
In turn, `Nc1cc(C(c2cc(F)ccc2F)S(=O)(=O)c2ccc(F)c(F)c2)c(Cl)cn1` (stereo not shown) [Example 247, [5-Chloro-4-[(2,5-difluorophenyl)(3,4-difluorophenylsulfonyl)methyl]pyridin-2-yl]amine] yielded a melting point of 140 to 141 °C. Besides, in series [1], the IC50 was below 5 nM.
The like results for `Nc1cc(C(c2cc(F)ccc2F)S(=O)(=O)c2ccc(C(F)(F)F)nc2)c(Cl)cn1` (stereo not shown) [Example 250, [5-Chloro-4-[(2,5-difluorophenyl)(6-trifluoromethylpyridin-3-ylsulfonyl)methyl]pyridin-2-yl]amine] were, in that order, 201 to 202 °C and 5 to 50 nM.
As to `N#Cc1ccc(F)c(C(c2cc(N)ncc2Cl)S(=O)(=O)c2ccc(Cl)cc2)c1` (stereo not shown) [Example 234, 3-[(2-Amino-5-chloropyridin-4-yl)(4-chlorophenylsulfonyl)methyl]-4-fluorobenzonitrile], the melting point was above 220 °C. Moreover, the IC50 in series [1] is below 5 nM.
`O=S(=O)(c1ccc(Cl)cc1)C(c1cc(F)ccc1F)c1ccncc1Cl` (stereo not shown) [Example 55, 3-Chloro-4-[(4-chlorophenylsulfonyl)-(2,5-difluorophenyl)methyl]pyridine] showed a melting point of 160 to 161 °C. For the same compound, the IC50 in series [1] fell in the range of 5 to 50 nM.
Take `O=C(O)CCc1cc(C(c2cc(F)ccc2F)S(=O)(=O)c2ccc(Cl)cc2)c(F)cn1` (stereo not shown) [Example 254, 3-[4-[(4-Chlorophenylsulfonyl)(2,5-difluorophenyl)methyl]-5-fluoropyridin-2-yl]propionic acid]: the melting point is 89 to 91 °C. Besides, the IC50 in series [1] fell in the range of 50 to 500 nM.
The like results for `O=S(=O)(c1ccc(Cl)cc1)C(c1cc(F)ccc1F)c1cc(NS(=O)(=O)C(F)(F)F)ncc1Cl` (stereo not shown) [Example 276, N-[5-Chloro-4-[(4-chlorophenylsulfonyl)(2,5-difluorophenyl)methyl]pyridin-2-yl]trifluoromethanesulfonamide] were, in that order, 221 to 223 °C and 5 to 50 nM.
Take `O=S(=O)(c1ccc(Cl)cc1)C(c1cc(F)ccc1F)c1cc(N2CCOCC2)ncc1Cl` (stereo not shown) [Example 59, 4-[5-Chloro-4-[(4-chlorophenylsulfonyl)-(2,5-difluorophenyl)methyl]pyridin-2-yl]morpholine]: the melting point fell in the range of 180 to 181 °C. In series [1], the IC50 was 5 to 50 nM.
In turn, `COc1ccc(S(=O)(=O)C(c2cc(F)ccc2F)c2cc(N)ncc2Cl)cc1` (stereo not shown) [Example 240, [5-Chloro-4-[(2,5-difluorophenyl)(4-methoxyphenylsulfonyl)methyl]pyridin-2-yl]amine] gave a melting point of 153 to 155 °C. The IC50 in series [1] is 5 to 50 nM.
